Source: US20080153806A1, “Novel Diazabicyclic Aryl Derivatives And Their Medical Use” (priority 2004, published 2008)
Where a name gives a salt, the structure may show the parent alone. Read-outs that look alike come from different tables or passages of the source.

What was measured:
[1] = biological target: T1, α7-subtype of nicotinic receptors (Rattus norvegicus, UniProt Q05941); experiment: In vitro inhibition of 3H-α-bungarotoxine binding in rat brain; details: rat cerebral cortex homogenate, 2 hours at 37° C., read-out: IC50 (concentration of the test substance which inhibits the specific binding of 3H-α-bungarotoxine by 50%)
T1 construct: Cerebral cortices from male Wistar rats (150-250 g) are homogenised; from tissue; host or cells: rat cerebral cortex membrane homogenate (male Wistar rats)
T1 sequence (Q05941 23-502): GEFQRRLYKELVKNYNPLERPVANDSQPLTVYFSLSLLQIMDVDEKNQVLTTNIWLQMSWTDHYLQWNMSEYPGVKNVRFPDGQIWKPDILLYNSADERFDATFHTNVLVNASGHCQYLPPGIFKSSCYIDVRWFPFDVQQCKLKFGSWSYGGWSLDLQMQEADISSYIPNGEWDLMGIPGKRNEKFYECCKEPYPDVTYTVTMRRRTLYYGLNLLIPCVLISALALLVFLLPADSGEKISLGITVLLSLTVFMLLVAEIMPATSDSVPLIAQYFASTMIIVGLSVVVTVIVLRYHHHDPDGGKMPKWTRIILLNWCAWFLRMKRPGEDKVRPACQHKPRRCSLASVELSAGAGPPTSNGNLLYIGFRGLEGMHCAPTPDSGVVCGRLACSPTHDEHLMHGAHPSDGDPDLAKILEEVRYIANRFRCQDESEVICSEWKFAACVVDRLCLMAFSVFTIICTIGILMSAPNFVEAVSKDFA

| melting point | SMILES | IC50 ([1]; 3H-α-bungarotoxine 2 nM) | IC50 ([1]; […]) |
| --- | --- | --- | --- |
| 151 °C | CN1C2CCC1CN(c1ccc(-c3ccccc3)nn1)C2 |  |  |
| 164 to 165 °C | CN1C2CCC1CN(c1ccc(-c3ccc(F)cc3)nn1)C2 |  |  |
| 110.5 °C | CN1C2CCC1CN(c1ccc(-c3ccccc3)cn1)C2 |  |  |
| 170 to 172 °C | COc1ccccc1-c1ccc(N2CC3CCC(C2)N3C)nn1 |  |  |
| 92 to 97 °C | COc1cccc(-c2ccc(N3CC4CCC(C3)N4C)nn2)c1 |  |  |
| 159 °C | CN1C2CCC1CN(c1ccc(-c3cccc(Cl)c3)nn1)C2 |  |  |
| 180 °C | CN1C2CCC1CN(c1ccc(-c3ccc(Cl)cc3)nn1)C2 |  |  |
| 131 to 133 °C | CN1C2CCC1CN(c1ccc(-c3cccnc3)nn1)C2 |  |  |
| 154 to 155 °C | COc1ccc(-c2ccc(N3CC4CCC(C3)N4C)nn2)cc1 |  |  |
| 192 to 200 °C | CN1C2CCC1CN(c1nnc(-c3ccccc3)s1)C2 (as salt: fumaric acid salt) |  |  |
| 170 to 191 °C | CN1C2CCC1CN(c1nnc(-c3ccccc3)o1)C2 (as salt: fumaric acid salt) |  |  |
| 159 to 160 °C | CN1C2CCC1CN(c1cccc(-c3ccccc3)n1)C2 (as salt: fumaric acid salt) |  |  |
| 186 to 195 °C | CN1C2CCC1CN(c1ccc(-c3ccccc3N)nn1)C2 (as salt: fumaric acid salt) |  |  |
| 219 to 222 °C | CC(=O)Nc1ccccc1-c1ccc(N2CC3CCC(C2)N3C)nn1 (as salt: fumaric acid salt) |  |  |
| 192 to 200 °C | CN1C2CCC1CN(c1ccc(-c3ccccc3Cl)nn1)C2 (as salt: fumaric acid salt) |  |  |
| 242 °C | COc1ccc2cc(-c3ccc(N4CC5CCC(C4)N5C)nn3)ccc2c1 (as salt: fumaric acid salt) |  |  |

| SMILES | melting point | IC50 ([1]; 3H-α-bungarotoxine 2 nM) | IC50 ([1]; […]) |
| --- | --- | --- | --- |
| CN1C2CCC1CN(c1ccc(-c3cccs3)nn1)C2 [Compound E1, 8-Methyl-3-(6-thiophen-2-yl-pyridazin-3-yl)-3,8-diaza-bicyclo[3.2.1]octane] | 156 °C | < 1000 nM |  |
| CN1C2CCC1CN(c1ccc(-c3ccsc3)nn1)C2 [Compound E2, 8-Methyl-3-(6-thiophen-3-yl-pyridazin-3-yl)-3,8-diaza-bicyclo[3.2.1]octane] | 172 to 173 °C | < 1000 nM |  |
| CN1C2CCC1CN(c1ccc(-c3ccco3)nn1)C2 [Compound E3, 3-(6-Furan-2-yl-pyridazin-3-yl)-8-methyl-3,8-diaza-bicyclo[3.2.1]octane] | 144 °C | < 1000 nM |  |
| CN1C2CCC1CN(c1ccc(-c3ccoc3)nn1)C2 [Compound E5, 3-(6-Furan-3-yl-pyridazin-3-yl)-8-methyl-3,8-diaza-bicyclo[3.2.1]octane] | 152 °C | < 1000 nM |  |
| CN1C2CCC1CN(c1ccc(-c3cccc(N)c3)nn1)C2 [Compound E7, 3-[6-(8-Methyl-3,8-diaza-bicyclo[3.2.1]oct-3-yl)-pyridazin-3-yl]-phenylamine] | 164 °C | < 1000 nM |  |
| CC(=O)Nc1cccc(-c2ccc(N3CC4CCC(C3)N4C)nn2)c1 [Compound E8, N-{3-[6-(8-Methyl-3,8-diaza-bicyclo[3.2.1]oct-3-yl)-pyridazin-3-yl]-phenyl}-acetamide] | 74 °C |  | < 1000 nM |
| CN1C2CCC1CN(c1ccc(-c3ccccc3F)nn1)C2 [Compound E9, 3-[6-(2-Fluoro-phenyl)-pyridazin-3-yl]-8-methyl-3,8-diaza-bicyclo[3.2.1]octane] | 152 °C |  | < 1000 nM |
| CN1C2CCC1CN(c1ccc(-c3cccc(F)c3)nn1)C2 [Compound E11, 3-[6-(3-Fluoro-phenyl)-pyridazin-3-yl]-8-methyl-3,8-diaza-bicyclo[3.2.1]octane] | 149 to 150 °C | < 1000 nM |  |
